“And” between values parts separate entries of the source, which are not always exact repeats. Equal values may be shown once. Read-outs that look alike come from different tables or passages of the source.

One data set deals with HDAC. Kind of data set: BRET measurement of histone acetylation / HDAC inhibition in Met-5A cells. The data set is classed as cell-based. How it is done: Cellular model: Met-5A cells (ATCC)
Seed 200000 cells per well of a 6-well plate in 2 ml of RPMI 10% FCS penicillin/streptomycin and glutamine.
D1: Transfection: phRluc-C1 BrD+pEYFP-C1 histone H3
600 ng of phRluc-C1 BrD+1500 ng of pEYFP-C1 histone H3 in 100 μl of crude RPMI.
After 6 h at 37° C., begin the treatments by adding 20 μl of treatment medium (RPMI 10% FCS penicillin, streptomycin and L-glutamine) comprising the test compounds at a ten-fold concentration.
Add 5 μl per well of coelenterazine h (Interchim) at 25 μM.
Parameters: Reading at 485 nm for 1 second and then reading at 530 nm for 1 second.
((value 530 nm phRluc-C1 BrD+pEYFP-C1 histone H3/value 480 nm phRluc-C1 BrD+pEYFP-C1 histone H3)-(value 530 nm phRluc-C1 BrD/value 480 nm phRluc-C1 BrD))×1000
Unit: milli BRET unit (mBu)
These experiments make it possible to evaluate the release of the HDAC inhibitors (HDI) in the live cells.

A short description of data set [1]: Hydrolysis in buffer solutions, release monitored by HPLC. Particulars: for half-life at 1 mg/ml: 1 mg/ml in acetonitrile 80% / buffer solution 20%. The data set is classed as physicochemical. Here is the method:
The compound is put into an acid medium (citrate buffer for pH 4.3 and […] buffer for pH 7.3) and release of CI-994 is monitored by HPLC. The hydrolysis of the compounds of the invention was carried out in buffer solutions (citrate buffer for pH 4.3 and […] for pH 7.3) at pH=4.3 and at pH=7.3. The concentration of the samples is 1 mg/ml in the solution: acetonitrile at 80% and buffer solution at 20%. […] In some cases the measurements were prolonged for 2 or 3 weeks, or even a month.

In the case of `CC(=O)Nc1ccc(C(=O)Nc2ccccc2N)cc1` [CI-994, reference compound], the EC50 in the data set on HDAC (read-out: EC50 (BRET), average value±standard deviation of three independent experiments) is 0.86 ± 1.14 µM.
As for `C#CCOCCOCCOCCOCCn1cc(C(Nc2ccccc2NC(=O)c2ccc(NC(C)=O)cc2)(c2ccccc2)c2ccccc2)nn1` [Compound 9c, N-(2-((1-(3,6,9,12-tetraoxapentadec-14-ynyl)-1H-1,2,3-triazol-4-yl)diphenylmethylamino)phenyl)-4-acetamidobenzamide], the half-life at 1 mg/ml was 0.5 h in data set [1] (pH 4.3 citrate buffer, read-out: t1/2 pH 4.3) and 86.4 h in data set [1] (pH 7.3 Trisma buffer, read-out: t1/2 pH 7.3 (converted)). In addition, the EC50 in the data set with HDAC (average value±standard deviation of three independent experiments, read-out: EC50 (BRET)) was 7.17 µM and 6.2 µM.
For the molecule “N^1-((1-(3,6,9,12-tetraoxapentadec-14-ynyl)-1H-1,2,3-triazol-4-yl)bis(4-fluorophenyl)methoxy)phenyl [Compound 21g]”, in data set [1] (pH 7.3), the time without hydrolysis entry is “at least 1 month”.

The term EC50 denotes the midpoint of the concentration-response curve.

The values above are taken from US20140219925A1, “POLYMER PARTICLES OR NANO-VECTORS AND USE THEREOF AS A DRUG AND/OR DIAGNOSTIC AGENT” (INSERM (Institut National de la Sante et de la Recherche …, priority 2011, published 2014).
